Measurements from US7115597B2, “Tyrosine kinase inhibitors” (Merck & Co., Inc., priority 2000, dated 2006).
Structures can show the parent of a compound that is named as a salt.

SMILES	melting point
N#Cc1cnc(Nc2cc(N3CCN(CC(=O)O)CC3)ncn2)s1 (as salt: TFA) [Compound 26-3, (4-{6-[(5-cyano-1,3-thiazol-2-yl)amino]pyrimidin-4-yl}piperazin-1-yl)acetic acid]	285 to 287 °C (dec.)
c1ccc(-c2cnc(Nc3ccncn3)s2)cc1 [Compound 1-3, (5-Phenyl-thiazol-2-yl)-pyrimidin-4-yl-amine]	> 250 °C
